The values below come from PubChem BioAssay AID1863 (Southern Research Specialized Biocontainment Screening …, 2009).

pIC50: −log10 of the molar value. Several values for one entry are separate records, joined by “and”; a condition that tells them apart may be missing. Equal entries are not always repeated.

This assay relates to S. Typhimurium PhoP-regulated promoter GFP reporter, 4 h. Put plainly: PhoP-dependent GFP reporter repression – Salmonella Typhimurium, primary screen (AID 1863).

Broadly, the pIC50 is −log10 of the IC50, conventionally taken in molar units. Regarding `Cc1ccc(C(=O)N/N=C/c2cc(Br)ccc2O)cn1`, the pIC50 was 4.12.
Next, `CCCCCCCNC(=O)C1(CC2CC(c3ccc(Cl)cc3)=NO2)CCNCC1` (stereo not drawn): 4.26; `O=C1C(=O)c2ccccc2-c2ccccc21`: 4.93; `Cc1cc(SCC(=O)N/N=C/c2ccc(O)c(O)c2O)c(C)cc1Br`: 4.38.
Consider `CCCCCCCCCn1c2c(c(=N)c3c1CCC3)CCCC2`, for which the pIC50 is 4.51.
As to `O=C(Cn1nc(CNc2ccc(Cl)cc2)[n+]2c1CCCCC2)c1ccc(Br)cc1`, the pIC50 is 4.04.
On to `CNC[C@H](Cc1ccccc1)NC[C@@H](Cc1cccc2ccccc12)NCCc1ccc(C)cc1`, for which the pIC50 is 4.57.
For `CCCCCCCOC(=O)C[N+](C)(C)CCOC1CC2CCC1(C)C2(C)C` (stereo not drawn), the pIC50 is 4.60.
As to `COc1ccc2[nH]c3c(C)c4ccncc4c(C)c3c2c1`, the negative-log IC50 (pIC50) was 4.50.
`Oc1c(Br)cc(Br)cc1C=NCc1ccccc1`: the pIC50 is 3.99.
Next, `Nc1ncn([C@@H]2O[C@H](CO)[C@@H](O)[C@H]2O)c(=O)n1`: 4.30; `CCCCCCCCCCOC(=O)Cn1c(COc2ccc(C)cc2)[n+](C)c2ccccc21`: 4.73.
As to `C1=C(CCNCc2ccccc2)CCCC1`, the pIC50 was 5.04.
`CCOc1ccc(Nc2c3ccccc3nc3ccccc23)cc1`: the pIC50 was 4.11.
`CN1CCN(C(c2ccccn2)c2cc(Cl)c3cccnc3c2O)CC1` (stereo not drawn): the pIC50 was 4.02.
In the case of `CCCCOc1ccc(Cc2cnc(N)nc2N)cc1`, the pIC50 was 4.04.
For the compound `COC1C(OC(=O)c2ccc(C)[nH]2)C(O)C(Oc2ccc3c(O)c(NC(=O)c4ccc(O)c(CC=C(C)C)c4)c(=O)oc3c2Cl)OC1(C)C` (stereo not drawn), the pIC50 is 4.93.
On to `CCCCCCCCCCCCCCCC[N+](C)(C)CCN(Cc1ccc(OC)cc1)c1ncccn1`, for which the pIC50 is 4.52.
On to `Cc1scc(C(=O)N/N=C/c2ccc([N+](=O)[O-])o2)c1C`, for which the pIC50 is 3.96.
Turning to `O=C(N/N=C/c1ccc([N+](=O)[O-])s1)C(O)c1ccccc1` (stereo not drawn), the pIC50 was 4.08.
The figure for `C[C@H]1O[C@@H](n2cc(F)c(=O)[nH]c2=O)[C@H](O)[C@@H]1O` is 4.64; for `CN(C)c1ccc(O)c2c1CC1CC3[C@@H](N(C)C)C(=O)C(C(N)=O)=C(O)[C@]3(O)C(=O)C1=C2O` (stereo partly drawn) it is 5.02; for `Cc1nc([N+](=O)[O-])c(Br)n1CC(=O)c1ccccc1` it is 3.84.
Regarding `CCCCCCCCNC(C)C(O)c1ccc(SC(C)C)cc1` (stereo not drawn), the pIC50 is 4.12.
Take `Cc1ccc(C(c2cc(Cl)c3cccnc3c2O)N2CCN(C)CC2)cc1` (stereo not drawn): the pIC50 is 4.26.
With `Nc1nc(N2CCN(C/C=C/c3ccccc3)CC2)nc2ccccc12`, the pIC50 is 3.83.
Next, `Cn1cnc([N+](=O)[O-])c1Oc1cccc(O)c1`: 3.95.
Regarding `Oc1cccc(/C=N/Nc2ccc(Cl)nn2)c1O`, the pIC50 is 3.86.
For `O=[N+]([O-])c1ccc(CNC2CCCc3ccccc32)cc1` (stereo not drawn), the pIC50 is 4.09.
Take `CCc1ccc(-c2nn(-c3ccccc3)cc2CSC(=N)N)cc1`: the pIC50 is 4.43.
On to `CC1CCc2c(N3CCC(O)CC3)c(F)cc3c(=O)c(C(=O)O)cn1c23` (stereo not drawn), for which the pIC50 is 5.20.
For the compound `Fc1ccc(Nc2nc(NCc3ccco3)c3ccccc3n2)cc1`, the pIC50 is 4.42.
In the case of `CCCCCCCSc1cc(OC)c(CCN(C)C)cc1OC`, the pIC50 was 4.17.
Consider `C#CCOCCOCCOCCNc1nc(N2CCN(C(=O)CCCCCCCCCCNC(=O)[C@H](CO)n3cc(CCCCCN)nn3)CC2)nc(N2CCN(C(=O)CCCCCCCCCCNC(=O)[C@H](CCCN=C(N)N)n3cc(C[C@@H](C)CC)nn3)CC2)n1`, for which the pIC50 is 3.99.
Next, `Cc1ccc(Nc2nc(NCc3ccco3)c3ccccc3n2)cc1`: 4.36; `c1cnc2c(c1)ccc1cccnc12`: 4.40; `Cc1c2ccncc2c(C)c2c1[nH]c1ccccc12`: 4.58.
In the case of `CO/N=C(/C(=O)N[C@@H]1C(=O)N2C(C(=O)O)=CCS[C@H]12)c1cnc(N)s1`, the pIC50 is 4.80.
In the case of `CN1CCN(c2c(F)cc3c(=O)c(C(=O)O)cn4c3c2SCC4)CC1`, the pIC50 is 5.35 and 5.33.
For the compound `CCn1cc(C(=O)O)c(=O)c2cc(F)c(N3CCN(C(=S)NC(=O)c4cccc(C)c4)CC3)cc21`, the pIC50 was 4.83.
For `C/C(=N\Nc1ncnc2sc(C)c(C)c12)c1ccccn1`, the pIC50 was 4.13.
For the compound `CCCCCCCSc1cc(OC)c(CCNC)cc1OC`, the negative-log IC50 (pIC50) was 4.25.
`CC(Cc1ccccc1)NCc1ccccc1O` (stereo not drawn): the pIC50 was 4.39.
With `C=C1c2cccc(O)c2C(O)=C2C(=O)[C@]3(O)C(O)=C(C(N)=O)C(=O)[C@@H](N(C)C)[C@@H]3[C@@H](O)[C@H]12`, the pIC50 is 5.85.
As for `Cc1nnc(N/N=C/c2ccccn2)[nH]c1=O`, the negative logarithm of the IC50 (pIC50) was 4.38.
As to `O=C(N/N=C/c1cc(Cl)ccc1O)c1ccncc1`, the pIC50 is 4.42.
As to `Oc1c(CN2CCN(c3ccc(F)cc3)CC2)cc(Cl)c2cccnc12`, the pIC50 is 4.31.
On to `Oc1cccc2ccc(Nc3ccccn3)nc12`, for which the pIC50 was 4.72.
The figure for `Cc1ccc(C(C[N+](=O)[O-])c2c(N)n(C)c(=O)n(C)c2=O)cc1` (stereo not drawn) is 4.21; for `NC1=NC[C@H](Cc2ccccc2)N1CCCCC1CCCCC1` it is 4.32.
With `COc1c(N2CCN(C(=S)NC3CC4CCC3C4)C(C)C2)c(F)cc2c(=O)c(C(=O)O)cn(C3CC3)c12` (stereo not drawn), the pIC50 was 4.65.
Next, `CCn1cc(C(=O)O)c(=O)c2cc(F)c(N3CCNCC3)cc21`: 6.29.
`COc1cccc(/C=N\NC(=O)Cn2nnc3ccccc32)c1O`: the pIC50 is 4.07.
Regarding `CCCCCOc1ccc(Br)cc1CSC(=N)N`, the pIC50 was 4.24.
`CCn1cc(C(=O)O)c(=O)c2cc(F)c(N3CCN(S(=O)(=O)c4ccc(NC(C)=O)cc4)CC3)cc21`: the pIC50 was 3.87.
As for `CCOC(=O)N1CCN(C(c2cccnc2)c2ccc3cccnc3c2O)CC1` (stereo not drawn), the pIC50 was 3.91.
For the compound `Cc1sc2ncnc(N/N=C/c3ccccc3O)c2c1C`, the pIC50 is 4.08.
Next, `O=C(/C=C/c1ccccc1Cl)c1ccccc(=O)c1O`: 4.40; `CN(C)S(=O)(=O)c1cccc(NC(=S)N/N=C/c2cc(Br)ccc2O)c1`: 4.16.
As for `O=C(NC(CO)C(O)c1ccc([N+](=O)[O-])cc1)C(Cl)Cl` (stereo not drawn), the pIC50 is 5.01.
`COc1ccc(Nc2cc(C)c3c(O)cccc3n2)cc1`: the negative logarithm of the IC50 (pIC50) was 4.16.
The figure for `CCC(C)(C)c1ccc(OCCCC[n+]2ccc(C)cc2)c(C(C)(C)CC)c1` is 4.17; for `Cc1ccc(-c2csc(NC(=O)C[n+]3cc(-c4ccc(C)cc4)n4c3CCC4)n2)cc1` it is 4.30.
Next, `O=[N+]([O-])c1ccc(-c2ccn[nH]2)o1`: 4.42.
Next, `CCCC(=O)NC(c1cccs1)c1cc([N+](=O)[O-])c2cccnc2c1O` (stereo not drawn): 4.42; `CC(C)Oc1ccc(Cc2cnc(N)nc2N)cc1`: 4.04; `CCCCCCCCCCOC(=O)Cn1c(COc2ccccc2)[n+](C)c2ccccc21`: 4.75.
`CCOc1ccc(NC(=O)c2ccc(NC(=O)c3cn4c5c(c(N6CCN(C)CC6)c(F)cc5c3=O)OCC4C)cc2)cc1` (stereo not drawn): the pIC50 is 5.53.
Regarding `Nc1nonc1-n1nnc(C(=O)N/N=C/c2cc(Br)ccc2O)c1CSC1=NCCS1`, the pIC50 is 3.91.
The figure for `Clc1ccc(CNCc2cccs2)cc1Cl` is 4.13.
For the compound `O=[N+]([O-])c1cc(CN2CCCC2)c2cccnc2c1O`, the pIC50 was 4.15.
The figure for `Cc1ccnc(NC(c2cccnc2)c2ccc3cccnc3c2O)c1` (stereo not drawn) is 4.24; for `Cc1cccc(Nc2cc(C)c3c(O)cccc3n2)c1C` it is 4.41; for `CCC(C)NC(=O)c1cn(CC)c2cc(N3CCN(C)CC3)c(F)cc2c1=O` (stereo not drawn) it is 4.43.
Take `COc1ccc(C(C[N+](=O)[O-])n2nc(C)cc2C)cc1` (stereo not drawn): the pIC50 was 4.31.
Consider `O=C1c2ccccc2NC(c2ccc(-c3cccc(Cl)c3)o2)N1O` (stereo not drawn), for which the pIC50 is 3.94.
The figure for `O=C(N/N=C\C=C\c1ccc([N+](=O)[O-])o1)c1cccs1` is 4.63.
Regarding `O=C(N/N=C/c1cc2c3c(c1O)CCCN3CCC2)c1ccccc1O`, the pIC50 was 3.86.
Regarding `CN(O)/C=c1/ccc2c(n1)C(=O)C=CC=2`, the pIC50 is 3.95.
Consider `CCn1cc(C(=O)NCCCN(C)C)c(=O)c2cc(F)c(N3CCN(C)CC3)cc21`, for which the pIC50 was 4.31.
The figure for `CCOC(=O)N1CCN(C(=O)c2cn(CC)c3cc(N4CCN(C)CC4)c(F)cc3c2=O)CC1` is 5.31; for `O=c1[nH]cc(F)c(=O)[nH]1` it is 5.01; for `COC(=O)c1c(NC(=O)c2ccc([N+](=O)[O-])o2)sc2c1CCN(C(C)C)C2` it is 4.25.
Next, `CCCCCc1ccc(OCCC[n+]2ccccc2)c(CCCCC)c1`: 4.08.
For `CC(C(=O)NC1CCS(=O)(=O)C1)N1C(=O)/C(=C/c2ccc(Cl)cc2)SC1=S` (stereo not drawn), the pIC50 was 4.40.
In the case of `CCCCCCCCCCOC(=O)Cn1c(COc2ccc(Cl)cc2)[n+](C)c2ccccc21`, the pIC50 is 4.71.
With `O=c1c2c(-c3ccccc3)csc2nc2c3ccccc3c(NCCN3CCOCC3)nn12`, the negative-log IC50 (pIC50) is 4.27.
For `Clc1ccc(C[n+]2cc(-c3ccc(Cl)cc3)n3c2CCC3)cc1`, the pIC50 was 3.90.
As to `CCn1cc(C(=O)NCCO)c(=O)c2cc(F)c(N3CCN(C)CC3)cc21`, the pIC50 is 4.65.
As to `CS(=O)(=O)c1ccc([C@@H](O)[C@@H](CO)NC(=O)C(Cl)Cl)cc1`, the pIC50 is 4.15.
As for `C[C@H]1c2cccc(O)c2C(O)=C2C(=O)[C@]3(O)C(O)=C(C(N)=O)C(=O)[C@@H](N(C)C)[C@@H]3[C@@H](O)[C@@H]21`, the pIC50 was 5.20.
As to `CCCCCN=C(N)N/N=C/c1c[nH]c2ccc(OC)cc12`, the pIC50 is 4.29.
As to `NC(N)=N/N=C/c1ccc(OCc2ccc(Cl)cc2)cc1`, the pIC50 was 4.40.
Take `O=C(O)CCN1C(=O)CC(N2C(=O)/C(=C/c3ccc(Cl)cc3)SC2=S)C1=O` (stereo not drawn): the negative logarithm of the IC50 (pIC50) was 4.39.
Take `Cc1ccc(C)c(/C=C/C(=O)c2ccccc(=O)c2O)c1`: the pIC50 is 4.05.
Take `O=[N+]([O-])c1ccc(Sc2nc3ccccc3o2)c([N+](=O)[O-])c1`: the pIC50 was 3.93.
The figure for `O=C(c1ccccc1)c1c2c(cc3sc4ccccc4[n+]13)-c1cccc3cccc-2c13` is 4.10; for `NC1=NC[C@@H](Cc2ccc(O)cc2)N1CCCCC1CCCCC1` it is 4.51.
